The target in this assay is CXCR3 (Macaca fascicularis, UniProt A0A2K5UV19). The experiment in a line: functional cellular assay measuring calcium flux in CXCR3 transfected cells (block of CXCR3/IP-10 interaction). The format is cell-based. Particulars: IP-10 induced intracellular calcium flux; Cyno-CHO cells stably expressing recombinant CXCR3 and G-alpha-16. As for the experimental part:
Compounds are assessed for the ability to block the interaction of CXCR3 and IP-10 in a functional cellular assay measuring calcium flux in CXCR3 transfected cells.
Cyno-CHO cells, stably expressing recombinant CXCR3 and G-alpha-16 are grown in F12 medium (Mediatech #45000-360) supplemented with 10% (V/V) FBS (Mediatech #35-01500), 1% Geneticin (Invitrogen #10131-027) and 0.2% Zeocin (Invitrogen #R250-05). The cells are spun down and re-suspended in growth media to a concentration of 4.8 E5 cells/mL. 25 microL of cell suspension is added to each well of a BD-384-well TC treated plate, providing 12,000 cells/well. The plate is incubated at 37° C./5% CO2 overnight. On the day of the assay, the plates are removed, the media is flicked out and 25 microL of Ca-4 dye in assay buffer (HBSS, 10 mM HEPES ph 7.4), containing 2 mM probenacid is added to each well. The cell assay plates are then incubated at 37° C./5% CO2 for one hour.
Test compounds are dissolved in DMSO and diluted to 1.045 mM in DMSO. Just prior to assay, 2.75 microL of appropriately diluted test compound are added to each well of a 384 well plate containing 45 microL of HBSS buffer. After mixing, 5 microL of diluted compound are added to each well of the cell assay plate for a final assay concentration of 10 microM. The plate is incubated at room temperature for 15 min. 10 microL of IP-10 stock solution in HBSS (4× EC80 concentration) are added to each well of the cell assay plate except those cells reserved as blank wells containing buffer only. Intracellular calcium flux is recorded on the HAMAMTSU FDSS6000, using excitation at 480 nm and emission at 540 nm. Data are analyzed using Activity Base software.
In general, the preferred potency range (IC50) of compounds in the above assay is between 1 nM to 3 μM, and the most preferred potency range is 1 nM to 20 nM.

Chain of CXCR3 (A0A2K5UV19 entry or part of it): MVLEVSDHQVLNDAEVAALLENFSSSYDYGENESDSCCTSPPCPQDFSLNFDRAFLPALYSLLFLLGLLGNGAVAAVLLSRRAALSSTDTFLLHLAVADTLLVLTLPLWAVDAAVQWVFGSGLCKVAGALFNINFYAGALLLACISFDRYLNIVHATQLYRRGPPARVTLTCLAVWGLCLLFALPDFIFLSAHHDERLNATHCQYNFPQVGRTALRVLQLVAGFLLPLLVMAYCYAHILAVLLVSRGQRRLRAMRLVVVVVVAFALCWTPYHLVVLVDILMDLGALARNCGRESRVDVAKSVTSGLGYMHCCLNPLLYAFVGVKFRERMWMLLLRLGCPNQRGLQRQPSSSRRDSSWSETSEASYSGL

As to `Cc1nn(CC(=O)N2CCCN(c3ncc(Cl)cc3NC(=O)c3cccc(Cl)c3)CC2)c(C)c1Cl` [3-Chloro-N-(5-chloro-2-{4-[2-(4-chloro-3,5-dimethyl-pyrazol-1-yl)-acetyl]-[1,4]diazepan-1-yl}-pyridin-3-yl)-benzamide], the concentration for half-maximal inhibition (IC50) worked out at 15 nM.

Regarding `Cc1cc(C)n(CC(=O)N2CCN(c3ccccc3NC(=O)c3cccc(C(F)(F)F)c3)CC2)n1` [N-(2-{4-[2-(3,5-Dimethyl-pyrazol-1-yl)-acetyl]-piperazin-1-yl}-phenyl)-3-trifluoromethyl-benzamide], the IC50 stood at 7.4 nM.

As to `COc1ccc(NC(=O)c2ccccc2N2CCN(C(=O)Cn3ccc4cccnc43)CC2)cn1` [N-(6-Methoxy-pyridin-3-yl)-2-[4-(2-pyrrolo[2,3-b]pyridin-1-yl-acetyl)-piperazin-1-yl]-benzamide], the IC50 is 5.7 nM.

`Cc1cc(C)n(CC(=O)N2CCN(c3ccccc3C(=O)Nc3ccc4ncccc4c3)CC2)n1` [2-{4-[2-(3,5-Dimethyl-pyrazol-1-yl)-acetyl]-piperazin-1-yl}-N-quinolin-6-yl-benzamide]: the IC50 was found to be 11.5 nM.

Consider `O=C(Nc1ccncc1)c1ccccc1N1CCN(C(=O)Cc2cn3ccccc3n2)CC1` [2-[4-(2-Imidazo[1,2-a]pyridin-2-yl-acetyl)-piperazin-1-yl]-N-pyridin-4-yl-benzamide], for which the half-inhibitory concentration (IC50) turned out to be 16 nM.

Take `Cc1cc(C)n(CC(=O)N2CCN(c3ccccc3NC(=O)c3ccc(Oc4ccccc4)nc3)CC2)n1` [N-(2-{4-[2-(3,5-Dimethyl-pyrazol-1-yl)-acetyl]-piperazin-1-yl}-phenyl)-6-phenoxy-nicotinamide]: the IC50 was found to be 9.1 nM.

Consider `Cc1cc(C)n(CC(=O)N2CCN(c3ccccc3C(=O)Nc3cncc(Cl)c3)CC2)n1` [N-(5-Chloro-pyridin-3-yl)-2-{4-[2-(3,5-dimethyl-pyrazol-1-yl)-acetyl]-piperazin-1-yl}-benzamide], for which the IC50 is 7.6 nM.

As for `Cc1cc(C(=O)NCC(=O)N2CCN(c3ccccc3C(=O)Nc3cccnc3)CC2)nn1C` [1,5-Dimethyl-1H-pyrazole-3-carboxylic acid (2-oxo-2-{4-[2-(pyridin-3-ylcarbamoyl)-phenyl]-piperazin-1-yl}-ethyl)-amide], the concentration for half-maximal inhibition (IC50) was found to be 20 nM.

Consider `Cc1nc(C)c(C(=O)NCC(=O)N2CCN(c3ccccc3C(=O)Nc3cccnc3)CC2)s1` [2,4-Dimethyl-thiazole-5-carboxylic acid (2-oxo-2-{4-[2-(pyridin-3-ylcarbamoyl)-phenyl]-piperazin-1-yl}-ethyl)-amide], for which the IC50 was 13.9 nM.

On to `COc1cc(NC(=O)c2cc(F)ccc2N2CCN(C(=O)CN3CCCCC3=O)CC2)ccn1` [5-Fluoro-N-(2-methoxy-pyridin-4-yl)-2-{4-[2-(2-oxo-piperidin-1-yl)-acetyl]-piperazin-1-yl}-benzamide], for which the IC50 stood at 9 nM.

With `Cc1cc(C)n(CC(=O)N2CCN(c3ccccc3NC(=O)c3ccncc3)CC2)n1` [N-(2-{4-[2-(3,5-Dimethyl-pyrazol-1-yl)-acetyl]-piperazin-1-yl}-phenyl)-isonicotinamide], the half-inhibitory concentration (IC50) amounted to 7.6 nM.

Regarding `COc1ccc(C(=O)NCC(=O)N2CCN(c3ccccc3C(=O)Nc3ccncc3)CC2)cc1F` [3-Fluoro-4-methoxy-N-(2-oxo-2-{4-[2-(pyridin-4-ylcarbamoyl)-phenyl]-piperazin-1-yl}-ethyl)-benzamide], the 50% inhibitory concentration (IC50) was 4.2 nM.

Take `COc1cc(NC(=O)c2cc(F)ccc2N2CCN(C(=O)Cn3nc(C)cc3C)CC2)ccn1` [2-{4-[2-(3,5-Dimethyl-pyrazol-1-yl)-acetyl]-piperazin-1-yl}-5-fluoro-N-(2-methoxy-pyridin-4-yl)-benzamide]: the IC50 amounted to 9.7 nM.

On to `Cc1cc(C)n(CC(=O)N2CCN(c3ccccc3C(=O)Nc3ccncc3F)CC2)n1` [2-{4-[2-(3,5-Dimethyl-pyrazol-1-yl)-acetyl]-piperazin-1-yl}-N-(3-fluoro-pyridin-4-yl)-benzamide], for which the 50% inhibitory concentration (IC50) turned out to be 19.5 nM.

For `Cc1cc(C)n(CC(=O)N2CCN(c3ccccc3C(=O)Nc3ccc(C(F)(F)F)nc3)CC2)n1` [2-{4-[2-(3,5-Dimethyl-pyrazol-1-yl)-acetyl]-piperazin-1-yl}-N-(6-trifluoromethyl-pyridin-3-yl)-benzamide], the half-maximal inhibitory concentration (IC50) came out at 11 nM.

As to `Cc1cc(C)n(CC(=O)N2CCN(c3ccccc3C(=O)Nc3ncc(C)s3)CC2)n1` [2-{4-[2-(3,5-Dimethyl-pyrazol-1-yl)-acetyl]-piperazin-1-yl}-N-(5-methyl-thiazol-2-yl)-benzamide], the IC50 came out at 7.3 nM.

`Cc1cc(C)n(CC(=O)N2CCN(c3ccccc3C(=O)Nc3cc(C(C)(C)C)ns3)CC2)n1` [N-(3-tert-Butyl-isothiazol-5-yl)-2-{4-[2-(3,5-dimethyl-pyrazol-1-yl)-acetyl]-piperazin-1-yl}-benzamide]: the IC50 turned out to be 10 nM.

On to `Cc1cn(CC(=O)N2CCN(c3ccccc3C(=O)Nc3ccccc3)CC2)c(C)n1` [2-{4-[2-(2,4-Dimethyl-imidazol-1-yl)-acetyl]-piperazin-1-yl}-N-phenyl-benzamide], for which the IC50 came out at 5 nM.

On to `COc1ccc(C(=O)NCC(=O)N2CCN(c3ncc(Cl)cc3NC(=O)c3cccc(C(F)(F)F)c3)CC2)cc1OC` [N-(2-{4-[5-Chloro-3-(3-trifluoromethyl-benzoylamino)-pyridin-2-yl]-piperazin-1-yl}-2-oxo-ethyl)-3,4-dimethoxy-benzamide], for which the 50% inhibitory concentration (IC50) came out at 8.8 nM.

For `Cc1cc(C)n(CC(=O)N2CCN(c3ccccc3C(=O)Nc3nc(C(C)(C)C)cs3)CC2)n1` [N-(4-tert-Butyl-thiazol-2-yl)-2-{4-[2-(3,5-dimethyl-pyrazol-1-yl)-acetyl]-piperazin-1-yl}-benzamide], the IC50 was found to be 15 nM.

For the molecule `Cc1cc(C)n(CC(=O)N2CCN(c3ccccc3C(=O)Nc3ccc4cnccc4c3)CC2)n1` [2-{4-[2-(3,5-Dimethyl-pyrazol-1-yl)-acetyl]-piperazin-1-yl}-N-isoquinolin-6-yl-benzamide], the half-inhibitory concentration (IC50) stood at 13 nM.

In the case of `COc1cccc(NC(=O)c2ccccc2N2CCN(C(=O)Cn3nc(C)cc3C)CC2)c1` [2-{4-[2-(3,5-Dimethyl-pyrazol-1-yl)-acetyl]-piperazin-1-yl}-N-(3-methoxy-phenyl)-benzamide], the IC50 was determined as 4.3 nM.

As to `O=C(Nc1ccncc1)c1ccccc1N1CCN(C(=O)CN2C(=O)c3ccccc3S2(=O)=O)CC1` [N-Pyridin-4-yl-2-{4-[2-(1,1,3-trioxo-1,3-dihydro-1l6-benzo[d]isothiazol-2-yl)-acetyl]-piperazin-1-yl}-benzamide], the IC50 turned out to be 6.6 nM.

For `COc1ccc(C(=O)NCC(=O)N2CCN(c3ccccc3C(=O)Nc3ccncc3)CC2)cc1` [4-Methoxy-N-(2-oxo-2-{4-[2-(pyridin-4-ylcarbamoyl)-phenyl]-piperazin-1-yl}-ethyl)-benzamide], the half-maximal inhibitory concentration (IC50) turned out to be 3.4 nM.

Take `O=C(Nc1ccncc1)c1ccccc1N1CCN(C(=O)Cc2n[nH]c3ccccc23)CC1` [2-[4-(2-1H-Indazol-3-yl-acetyl)-piperazin-1-yl]-N-pyridin-4-yl-benzamide]: the IC50 turned out to be 7.2 nM.

On to `O=C(Nc1ccnc(C(F)(F)F)c1)c1ccccc1N1CCN(C(=O)CN2CCCCC2=O)CC1` [2-{4-[2-(2-Oxo-piperidin-1-yl)-acetyl]-piperazin-1-yl}-N-(2-trifluoromethyl-pyridin-4-yl)-benzamide], for which the half-maximal inhibitory concentration (IC50) turned out to be 11 nM.

On to `Cc1cc(C)n(CC(=O)N2CCN(c3ccccc3C(=O)Nc3ccc(Br)nc3)CC2)n1` [N-(6-Bromo-pyridin-3-yl)-2-{4-[2-(3,5-dimethyl-pyrazol-1-yl)-acetyl]-piperazin-1-yl}-benzamide], for which the concentration for half-maximal inhibition (IC50) worked out at 8.5 nM.

Values taken from patent US8362249B2, “CXCR3 receptor antagonists” (Boehringer Ingelheim International GmbH, priority 2009, dated 2013).
